Data taken from ChEMBL document CHEMBL1129183, “Correlation of oxidation potential and toxicity in thiobenzamides” (Bioorg Med Chem Lett, 1996).

Assay: Lethal dose to rats was determined
Type: toxicity
Conditions: rat, in vivo

Structure (SMILES)	Dose
Cc1ccc(C(N)=S)cc1	2 mM/kg
COc1ccc(C(N)=S)cc1	2 mM/kg
